The text below walks through data of patent US20250223260A1, “Substituted Pyrrolidinyl And Piperidinyl Compounds And Related Methods Of Treatment” (Alkermes, Inc., priority 2022, published 2025).

Usually EC50 stands for the midpoint of the concentration-response curve. A high value points to a need for much substance.

The experiment has as its target T1, human orexin-2 receptor (OX2R) (Homo sapiens, UniProt O43614).
T1 construct: expressed in transfected cells
T1 sequence (O43614 1-444): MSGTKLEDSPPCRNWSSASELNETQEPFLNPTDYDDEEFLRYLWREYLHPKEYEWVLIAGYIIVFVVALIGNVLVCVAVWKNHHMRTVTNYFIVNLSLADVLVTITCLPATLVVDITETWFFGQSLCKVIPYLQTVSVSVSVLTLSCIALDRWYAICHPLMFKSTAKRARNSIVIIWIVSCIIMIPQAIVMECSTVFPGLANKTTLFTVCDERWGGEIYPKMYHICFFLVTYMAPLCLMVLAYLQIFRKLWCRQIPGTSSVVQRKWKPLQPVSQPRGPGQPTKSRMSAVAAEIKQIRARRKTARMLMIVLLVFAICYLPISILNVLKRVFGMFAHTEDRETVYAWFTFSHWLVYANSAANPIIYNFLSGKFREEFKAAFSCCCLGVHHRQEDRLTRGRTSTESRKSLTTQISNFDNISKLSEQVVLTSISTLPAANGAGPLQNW
In words: Human OX2R IP1 assay. It counts as cell-based. The following applies: T-Rex CHO cells stably overexpressing human OX2R; IP1 accumulation (HTRF); 1 hr at 37 degrees C. Here is the method:
T-Rex CHO cells stably overexpressing the human orexin-2 receptor (OX2R) are induced overnight with 1 μg/mL of doxycycline in a T225 flask. 24 hours post induction, cells are lifted with accutase and plated into a 384-well proxy plate at 30,000 cells/well. Cells are then treated with different test compounds in 1× stimulation buffer containing 10 mM Hepes, 1 mM CaCl2, 0.5 mM MgCl2, 4.2 mM KCl, 146 mM NaCl, 5.5 mM glucose, and 50 mM LiCl, pH 7.4, for 1 hr at 37 degrees C. Following incubation, the reaction is terminated by the addition of detection mix, which is composed of IP1-d2 and anti-IP1-cryptate diluted in lysis buffer as well as 1× stimulation buffer. The plates are allowed to incubate for 1 hour at room temperature and are then read in the EnVision® multimode plate reader, measuring inositol phosphate levels.
Cisbio IP1 is a cell-based functional assay quantifying the accumulation of inositol monophosphate (IP), a metabolite released as a result of orexin 2 receptor activation through the phospholipase C-Gq signaling pathway. This is a competitive immunoassay in which the IP1 produced by the cells upon receptor activation competes with the IP1 analog coupled to the d2 fluorophore (acceptor) for binding to an anti-IP1 monoclonal antibody labeled with Eu cryptate (donor). The measured HTRF-FRET based signal is inversely proportional to the IP1 concentration produced.
The EC50 values reported in Table 2 were obtained according to the human OX2R IP1 assay described above. Data are the mean EC50 values ±S.E.M.
In general terms: In TR-FRET formats the signal depends on donor and acceptor labels being close together.

`CS(=O)(=O)N[C@@H]1CCN(C(=O)C2(F)CC2)C[C@@H]1OC[C@H]1CC[C@@H](c2ccccc2)CC1` (single isomer, unassigned) [Compound 67] had an EC50 of under 0.1 µM.
To `CS(=O)(=O)N[C@H]1CCN(C2COC2)C[C@H]1OC[C@H]1CC[C@@H](c2ccccc2)CC1` (single isomer, unassigned) [Compound 51] belongs over 10 µM; to `CS(=O)(=O)N[C@@H]1CCN(C(=O)C2(O)CCC2)C[C@@H]1OCC1CCC(c2ccccc2)CC1` (single isomer, unassigned) [Compound 44], over 10 µM.
Under `CS(=O)(=O)N[C@H]1CCN(C(=O)C2CCC2)C[C@H]1OCC1CCC(c2ccccc2)CC1` (single isomer, unassigned) [Compound 65] stands under 0.1 µM.
Under `COC(=O)N1CC[C@@H](NS(C)(=O)=O)[C@@H](OC[C@H]2CC[C@@H](c3ccccc3)CC2)C1` (single isomer, unassigned) [Compound 41] stands over 10 µM; under `CS(=O)(=O)N[C@@H]1CCN(C(=O)C2(F)CC2)C[C@@H]1OCC1CCC(c2ccccc2)CC1` (single isomer, unassigned) [Compound 68], 0.1 to 10 µM.
`CS(=O)(=O)N[C@@H]1CCN(CC2COC2)C[C@@H]1OC[C@H]1CC[C@@H](c2ccccc2)CC1` (single isomer, unassigned) [Compound 58] showed an EC50 of over 10 µM.
In the case of `COC1(C(=O)N2CC[C@H](NS(C)(=O)=O)[C@H](OC[C@H]3CC[C@@H](c4ccccc4)CC3)C2)CCC1` [Compound 42], the concentration for a half-maximal effect (EC50) was 0.1 to 10 µM.
To `CC1(C(=O)N2CC[C@H](NS(C)(=O)=O)[C@H](OCC3CCC(c4ccccc4)CC3)C2)COC1` (single isomer, unassigned) [Compound 45] belongs 0.1 to 10 µM; to `Cn1ccc(N2CC[C@@H](NS(C)(=O)=O)[C@@H](OC[C@H]3CC[C@@H](c4ccccc4)CC3)C2)n1` (single isomer, unassigned) [Compound 48], over 10 µM.
Molecule `CS(=O)(=O)N[C@@H]1CCN(C(=O)C2(O)CCC2)C[C@@H]1OC[C@H]1CC[C@@H](c2ccccc2)CC1` (single isomer, unassigned) [Compound 43] returned a concentration giving a half-maximal response (EC50) of under 0.1 µM.
Under `CS(=O)(=O)N[C@@H]1CCN(c2cccnn2)C[C@@H]1OC[C@H]1CC[C@@H](c2ccccc2)CC1` (single isomer, unassigned) [Compound 56] stands 0.1 to 10 µM; under `CS(=O)(=O)N[C@@H]1CCN(C(=O)C2(F)CCC2)C[C@@H]1OCC1CCC(c2ccccc2)CC1` (single isomer, unassigned) [Compound 50], 0.1 to 10 µM; under `CC(C)(O)C(=O)N1CC[C@@H](NS(C)(=O)=O)[C@@H](OC[C@H]2CC[C@@H](c3ccccc3)CC2)C1` (single isomer, unassigned) [Compound 38], 0.1 to 10 µM.
To `CC1(C(=O)N2CC[C@@H](NS(C)(=O)=O)[C@@H](OCC3CCC(c4ccccc4)CC3)C2)COC1` (single isomer, unassigned) [Compound 46] belongs over 10 µM; to `CS(=O)(=O)N[C@@H]1CCN(CC2(F)CCC2)C[C@@H]1OCC1CCC(c2ccccc2)CC1` (single isomer, unassigned) [Compound 70], over 10 µM; to `CS(=O)(=O)N[C@H]1CCN(C(=O)C2(F)CCC2)C[C@H]1OCC1CCC(c2ccccc2)CC1` (single isomer, unassigned) [Compound 49], under 0.1 µM.
Take `CS(=O)(=O)N[C@H]1CCN(c2ncco2)C[C@H]1OC[C@H]1CC[C@@H](c2ccccc2)CC1` (single isomer, unassigned) [Compound 39, N-(cis-1-(oxazol-2-yl)-3-((cis-4-phenylcyclohexyl)methoxy)piperidin-4-yl)methanesulfonamide]: the concentration giving a half-maximal response (EC50) was 0.1 to 10 µM.
To `CS(=O)(=O)N[C@@H]1CCN(C(=O)C2CC2)C[C@@H]1OC[C@H]1CC[C@@H](c2ccccc2)CC1` (single isomer, unassigned) [Compound 37, N-[cis-1-cyclopropanecarbonyl-3-[(cis-4-phenylcyclohexyl)methoxy]piperidin-4-yl]methanesulfonamide] belongs 0.1 to 10 µM; to `CS(=O)(=O)N[C@H]1CCN(CC2(F)CCC2)C[C@H]1OCC1CCC(c2ccccc2)CC1` (single isomer, unassigned) [Compound 69], 0.1 to 10 µM; to `COC(=O)N1CC[C@H](NS(C)(=O)=O)[C@H](OC[C@H]2CC[C@@H](c3ccccc3)CC2)C1` (single isomer, unassigned) [Compound 40], 0.1 to 10 µM.
To `C[C@H](C1COC1)N1CC[C@@H](NS(C)(=O)=O)[C@@H](OCC2CCC(c3ccccc3)CC2)C1` (single isomer, unassigned) [Compound 64] belongs over 10 µM; to `C[C@@H](C1COC1)N1CC[C@@H](NS(C)(=O)=O)[C@@H](OCC2CCC(c3ccccc3)CC2)C1` (single isomer, unassigned) [Compound 62], over 10 µM; to `C[C@H](C1COC1)N1CC[C@H](NS(C)(=O)=O)[C@H](OCC2CCC(c3ccccc3)CC2)C1` (single isomer, unassigned) [Compound 63], over 10 µM.
To `CS(=O)(=O)N[C@@H]1CCN(C2COC2)C[C@@H]1OC[C@H]1CC[C@@H](c2ccccc2)CC1` (single isomer, unassigned) [Compound 52] belongs over 10 µM; to `Cn1cnc(N2CC[C@H](NS(C)(=O)=O)[C@H](OCC3CCC(c4ccccc4)CC3)C2)c1` (single isomer, unassigned) [Compound 59], 0.1 to 10 µM; to `Cn1ccnc1N1CC[C@@H](NS(C)(=O)=O)[C@@H](OC[C@H]2CC[C@@H](c3ccccc3)CC2)C1` (single isomer, unassigned) [Compound 54], 0.1 to 10 µM.
In the case of `Cn1ccnc1N1CC[C@H](NS(C)(=O)=O)[C@H](OCC2CCC(c3ccccc3)CC2)C1` (single isomer, unassigned) [Compound 53], the EC50 is over 10 µM.
To `Cn1cnc(N2CC[C@@H](NS(C)(=O)=O)[C@@H](OC[C@H]3CC[C@@H](c4ccccc4)CC3)C2)c1` (single isomer, unassigned) [Compound 60] belongs over 10 µM; to `CS(=O)(=O)N[C@H]1CCN(c2cccnn2)C[C@H]1OC[C@H]1CC[C@@H](c2ccccc2)CC1` (single isomer, unassigned) [Compound 55], under 0.1 µM; to `C[C@@H](C1COC1)N1CC[C@H](NS(C)(=O)=O)[C@H](OCC2CCC(c3ccccc3)CC2)C1` (single isomer, unassigned) [Compound 61], over 10 µM.
Under `Cn1ccc(N2CC[C@H](NS(C)(=O)=O)[C@H](OC[C@H]3CC[C@@H](c4ccccc4)CC3)C2)n1` (single isomer, unassigned) [Compound 47] stands 0.1 to 10 µM; under `CS(=O)(=O)N[C@H]1CCN(CC2COC2)C[C@H]1OC[C@H]1CC[C@@H](c2ccccc2)CC1` (single isomer, unassigned) [Compound 57], over 10 µM.
To `CS(=O)(=O)N[C@@H]1CCN(C(=O)C2CCC2)C[C@@H]1OCC1CCC(c2ccccc2)CC1` (single isomer, unassigned) [Compound 66] belongs 0.1 to 10 µM.
